The source made the active and inactive calls. The calls are words filed in the database; no cut-off is given here.
Columns and labels:
[1] = target: Histone deacetylase 1/3/5/8 (Homo sapiens, UniProt Q13547+O15379+Q9UQL6+Q9BY41); assay: Inhibition of HDAC1/HDAC3/HDAC5/HDAC8 in human HeLa nuclear extract using Boc-Lys(acetyl)-AMC as substrate incubated for 5 mins prior to substrate measured after 30 mins by spectrophotometric analysis; format: protein assay
[2] = Metal chelating activity assessed as affinity to Zn2+ by spectrophotometry; format: functional
[3] = target: T1, Aminopeptidase N (Sus scrofa, UniProt P15145); assay: Inhibition of pig microsomal aminopeptidase N using L-leu-p-nitroanilide as substrate incubated for 5 mins prior to substrate addition measured after 30 mins by spectrophotometric analysis
T1 sequence (P15145 whole entry): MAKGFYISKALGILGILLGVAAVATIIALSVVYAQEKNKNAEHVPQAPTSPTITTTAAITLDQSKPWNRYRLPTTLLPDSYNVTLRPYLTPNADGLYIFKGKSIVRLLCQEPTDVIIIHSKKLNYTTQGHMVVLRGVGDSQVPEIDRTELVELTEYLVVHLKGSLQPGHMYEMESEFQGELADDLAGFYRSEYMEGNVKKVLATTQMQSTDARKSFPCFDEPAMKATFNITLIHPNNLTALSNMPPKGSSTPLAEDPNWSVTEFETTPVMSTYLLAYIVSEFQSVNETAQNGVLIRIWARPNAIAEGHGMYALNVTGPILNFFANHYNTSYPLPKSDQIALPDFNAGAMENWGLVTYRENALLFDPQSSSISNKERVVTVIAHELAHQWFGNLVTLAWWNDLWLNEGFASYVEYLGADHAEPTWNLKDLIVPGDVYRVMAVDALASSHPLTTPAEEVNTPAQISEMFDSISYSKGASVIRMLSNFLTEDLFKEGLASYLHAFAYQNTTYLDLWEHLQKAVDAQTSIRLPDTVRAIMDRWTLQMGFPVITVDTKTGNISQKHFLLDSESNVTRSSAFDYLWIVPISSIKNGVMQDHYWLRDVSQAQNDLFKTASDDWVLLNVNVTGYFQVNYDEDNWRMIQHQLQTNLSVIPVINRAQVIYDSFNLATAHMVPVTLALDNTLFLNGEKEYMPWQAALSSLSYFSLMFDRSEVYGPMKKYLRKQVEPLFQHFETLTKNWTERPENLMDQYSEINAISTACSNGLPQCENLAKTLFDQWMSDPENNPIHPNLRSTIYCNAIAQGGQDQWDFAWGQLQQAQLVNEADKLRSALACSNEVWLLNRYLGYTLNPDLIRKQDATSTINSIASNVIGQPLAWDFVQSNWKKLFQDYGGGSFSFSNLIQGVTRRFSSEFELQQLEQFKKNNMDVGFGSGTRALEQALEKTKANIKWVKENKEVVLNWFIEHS

| SMILES | IC50 [1] | IC50 [3] | Activity [2] |
| --- | --- | --- | --- |
| CC(C)C[C@H](NC(=O)[C@@H](O)[C@H](N)Cc1ccccc1)C(=O)O [UBENIMEX] | > 1000 µM | – | – |
| CC(C)C[C@H](NC(=O)CC(=O)[C@H](N)Cc1ccccc1)C(=O)O | > 1000 µM | 1.41 µM | Active |
| CC(C)(C)OC(=O)N[C@H](Cc1ccccc1)C(=O)CC(=O)OCc1ccccc1 | > 1000 µM | > 1000 µM | – |
| N[C@H](Cc1ccccc1)C(=O)CC(=O)OCc1ccccc1 | > 1000 µM | 711 µM | – |
| COC(=O)[C@H](CC(C)C)NC(=O)CC(=O)[C@@H](Cc1ccccc1)NC(=O)OC(C)(C)C | > 1000 µM | > 1000 µM | – |
| COC(=O)[C@H](CC(C)C)NC(=O)CC(=O)[C@H](N)Cc1ccccc1 | > 1000 µM | 5.04 µM | – |
| N[C@H](Cc1ccccc1)C(=O)CC(=O)N[C@@H](Cc1ccccc1)C(=O)O | > 1000 µM | 4.73 µM | – |
| N[C@H](Cc1ccccc1)C(=O)CC(=O)N[C@H](C(=O)O)c1ccccc1 | > 1000 µM | 3.82 µM | – |

The next lines start with results.

| IC50 [1] | IC50 [3] | SMILES | Activity [2] |
| --- | --- | --- | --- |
| – | 15.5 µM | COc1cc(/C=C/C(=O)CC(=O)/C=C/c2ccc(O)c(OC)c2)ccc1O [CURCUMIN] | – |
| > 1000 µM | 6.03 µM | COC(=O)[C@@H](NC(=O)CC(=O)[C@H](N)Cc1ccccc1)c1ccccc1 | – |
| > 1000 µM | > 1000 µM | COC(=O)CC(=O)[C@@H](Cc1ccccc1)NC(=O)OC(C)(C)C | – |
| > 1000 µM | 7.02 µM | COC(=O)[C@H](Cc1ccccc1)NC(=O)CC(=O)[C@H](N)Cc1ccccc1 | – |
| > 1000 µM | 984 µM | COC(=O)CC(=O)[C@H](N)Cc1ccccc1 | – |
| > 1000 µM | > 1000 µM | COC(=O)[C@@H](NC(=O)CC(=O)[C@@H](Cc1ccccc1)NC(=O)OC(C)(C)C)c1ccccc1 | – |
| > 1000 µM | > 1000 µM | COC(=O)[C@H](Cc1ccccc1)NC(=O)CC(=O)[C@@H](Cc1ccccc1)NC(=O)OC(C)(C)C | – |

Source: ChEMBL document CHEMBL2413034, “Novel β-dicarbonyl derivatives as inhibitors of aminopeptidase N (APN)” (Bioorg Med Chem Lett, 2013)
